The source of these data is patent US6492356B1, “Acylguanidine derivatives as inhibitors of bone resorption and as vitronectin receptor antagonists” (Aventis Pharma Deutschland GmbH, priority 1997, dated 2002).

pIC50: −log10 of the molar value.

This test has as its target T1, vitronectin receptor αvβ3 (Homo sapiens, UniProt P05106+P06756).
T1 construct: expressed in transfected cells
As to the kind of experiment: Inhibition of binding of 293 cells to human vitronectin (Vn/293 cell test). The class given is cell-based. The note with it: 293 cells cotransfected with αv and β3 subunits; plate coated with human vitronectin; 90 min at 37° C. An excerpt: Test for the measurement of the inhibition of binding of 293 cells to human vitronectin (Vn/293 cell test)
1. Purification of Human Vitronectin
Human vitronectin is isolated from human plasma and purified by affinity chromatography according to the method of Yatohyo et al., Cell Structure and Function, 1988, 23, 281-292.
293 cells, a human embryonic kidney cell line, which are cotransfected with DNA sequences for the αv and β3 subunits of the vitronectin receptor αvβ3 , are selected for a high rate of expression (>500,000 αvβ3 receptors/cell) according to the FACS method. The selected cells are cultured and sorted again by means of FACS in order to obtain a stable cell line (15 D) with expression rates >1,000,000 copies of αvβ3 per cell.
A Linbro 96-well tissue culture plate with a flat bottom is coated overnight at 4° C. with human vitronectin (0.01 mg/ml, 0.05 ml/well) in phosphate-buffered saline solution (PBS) and then blocked with 0.5% strength BSA (bovine serum albumin). Solutions of the test substances from 10^−10 mol/l to 2×10^−3 mol/l in glucose-containing DMEM medium are prepared and 0.05 ml/well of the solution are added to the plate in each case. The cells which express high levels of αvβ3 (for example 15 D) are suspended in glucose-containing DMEM medium and the suspension is adjusted to a content of 25,000 cells/0.05 ml of medium. 0.05 ml of this cell suspension is added to each well and the plate is incubated at 37° C. for 90 min. The plate is washed three times with warm PBS in order to remove unbound cells. The bound cells are lyzed in citrate buffer (25 mM, pH 5.0) which contains 0.25% Triton X-100. The hexoseamidase substrate p-nitrophenyl-N-acetyl-β-D-glucosaminide is then added and the plate is incubated at 37° C. for 90 min. The reaction is stopped with a glycine (50 mM)/EDTA (5 mM) buffer (pH 10.4) and the absorption of each well is measured at 405-650 nm. The data are analyzed according to standard processes.

T1 sequence (P06756 31-889 limits assumed): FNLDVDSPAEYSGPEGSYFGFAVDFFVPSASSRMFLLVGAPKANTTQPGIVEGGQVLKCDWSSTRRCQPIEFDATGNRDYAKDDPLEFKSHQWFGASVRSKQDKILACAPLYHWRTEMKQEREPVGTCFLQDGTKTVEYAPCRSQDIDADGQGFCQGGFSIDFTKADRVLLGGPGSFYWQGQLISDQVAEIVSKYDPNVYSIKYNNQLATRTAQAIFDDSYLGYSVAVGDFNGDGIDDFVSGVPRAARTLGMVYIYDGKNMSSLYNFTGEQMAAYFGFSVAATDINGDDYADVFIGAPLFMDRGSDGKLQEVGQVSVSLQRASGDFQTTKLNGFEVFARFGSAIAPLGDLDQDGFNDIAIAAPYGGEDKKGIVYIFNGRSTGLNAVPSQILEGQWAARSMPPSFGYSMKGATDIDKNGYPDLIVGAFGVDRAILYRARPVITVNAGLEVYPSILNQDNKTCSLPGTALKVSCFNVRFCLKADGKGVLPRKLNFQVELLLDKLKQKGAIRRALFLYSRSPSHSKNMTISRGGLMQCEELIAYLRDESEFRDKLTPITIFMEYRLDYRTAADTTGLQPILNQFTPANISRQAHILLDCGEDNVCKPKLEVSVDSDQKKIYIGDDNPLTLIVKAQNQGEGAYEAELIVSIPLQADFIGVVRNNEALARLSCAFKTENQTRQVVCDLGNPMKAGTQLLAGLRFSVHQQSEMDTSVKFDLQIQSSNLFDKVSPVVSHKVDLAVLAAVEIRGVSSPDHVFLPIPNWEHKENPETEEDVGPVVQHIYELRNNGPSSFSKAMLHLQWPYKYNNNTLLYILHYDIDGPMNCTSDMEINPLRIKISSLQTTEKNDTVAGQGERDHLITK
T1 sequence (P06756 891-1048 limits assumed): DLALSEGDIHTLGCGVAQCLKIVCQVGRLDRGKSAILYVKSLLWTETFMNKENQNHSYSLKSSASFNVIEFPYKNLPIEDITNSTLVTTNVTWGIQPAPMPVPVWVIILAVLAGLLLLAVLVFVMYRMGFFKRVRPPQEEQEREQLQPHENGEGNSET
T1 sequence (P05106 27-788): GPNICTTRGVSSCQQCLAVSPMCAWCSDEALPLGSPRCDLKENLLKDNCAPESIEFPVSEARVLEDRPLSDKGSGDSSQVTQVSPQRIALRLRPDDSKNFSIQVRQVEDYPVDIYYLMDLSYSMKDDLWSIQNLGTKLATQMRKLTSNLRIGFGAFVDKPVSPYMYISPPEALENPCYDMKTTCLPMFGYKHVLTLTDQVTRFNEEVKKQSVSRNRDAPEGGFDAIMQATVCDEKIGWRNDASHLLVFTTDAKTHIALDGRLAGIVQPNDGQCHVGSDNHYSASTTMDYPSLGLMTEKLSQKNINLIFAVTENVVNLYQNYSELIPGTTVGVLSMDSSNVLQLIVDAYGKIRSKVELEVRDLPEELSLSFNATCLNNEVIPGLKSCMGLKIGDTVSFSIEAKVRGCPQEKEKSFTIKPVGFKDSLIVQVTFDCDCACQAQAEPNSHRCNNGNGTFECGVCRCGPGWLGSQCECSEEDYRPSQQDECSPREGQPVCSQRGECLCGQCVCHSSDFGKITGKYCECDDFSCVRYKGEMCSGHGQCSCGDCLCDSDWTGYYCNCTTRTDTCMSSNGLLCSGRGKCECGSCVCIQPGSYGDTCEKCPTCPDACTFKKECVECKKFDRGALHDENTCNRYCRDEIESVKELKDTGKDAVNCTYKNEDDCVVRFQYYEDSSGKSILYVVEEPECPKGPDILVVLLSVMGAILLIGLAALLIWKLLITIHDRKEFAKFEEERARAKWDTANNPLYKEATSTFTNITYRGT

`O=C(CCCOc1ccc(C[C@H](NC(=O)OCc2ccccc2)C(=O)O)cc1)NC1=NCCCN1` [Example 1, (2S)-2-Benzyloxycarbonylamino-3-(4-(3-(1,4,5,6-tetrahydropyrimidin-2-ylcarbamoyl)propyloxy)phenyl)propionic Acid] gave a pIC50 of 7.55.
As for `O=C(CCc1ccc(C(=O)NC[C@H](NC(=O)OCc2ccccc2)C(=O)O)cc1)NC1=NCCCN1` [Example 2, (2S)-2-Benzyloxycarbonylamino-3-(4-(2-(1,4,5,6-tetrahydropyrimidin-2-ylcarbamoyl)ethyl)benzoylamino)propionic Acid], the figure is 7.77.
The molecule `O=C(COc1ccc(C(=O)NC[C@H](NC(=O)OCc2ccccc2)C(=O)O)cc1)NC1=NCCCN1` [Example 3, (2S )-2-Benzyloxycarbonylamino-3-(4-((1,4,5,6-tetrahydropyrimidin-2-ylcarbamoyl)methyloxy)benzoylamino)propionic Acid] had a negative-log IC50 (pIC50) of 5.87.
Take `O=C(CCCOc1ccc(C[C@H](NC(=O)OCc2ccccc2)C(=O)O)cc1)NC1=NCCN1` [Example 6, (2S)-2-Benzyloxycarbonylamino-3-(4-(3-(4,5-dihydro-1H-imidazol-2-ylcarbamoyl)propyloxy)phenyl)propionic Acid]: the pIC50 is 7.49.
